Experimental data: the METLIN SMRT retention time set (Domingo-Almenara et al. 2019)

Assay: gradient 5% acetonitrile 3 min, to 50% in 2 min, to 85% in 15 min, held 3 min, 100 µL/min
Details: column: Zorbax Extend-C18 2.1 x 50 mm; eluents: water / acetonitrile, 0.1% formic acid
In short: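 Retention time was recorded from adduct peaks, which were picked computationally and each inspected manually. Pure standards ran in mixtures of ~100 molecules on HPLC coupled to a quadrupole time-of-flight mass spectrometer, in positive and negative ionization mode, through a Zorbax Extend-C18 column (2.1 × 50 mm, 1.8 μm) at 100 μL/min. Eluents were water and acetonitrile, each with 0.1% formic acid.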

Point of comparison: `COc1cccc(-c2ccc(SCC(=O)Nc3ccccc3C(F)(F)F)nn2)c1`, RP-LC retention time 912 s. Against it:
- Cc1ccccc1S(=O)(=O)N1CCC(Cc2nc3cccnc3n2CC(C)C)C1 (stereo not drawn) — lower, 785 s
- CS(=O)(=O)N1CCC(C(=O)Nc2ccc(Cl)cc2)Oc2ccccc21 (stereo not drawn) — higher, 924 s
- CCn1c(=O)c2ccn(CC(=O)NCc3cccnc3)c2n(CC)c1=O — lower, 568 s
- CCn1cc(-c2nc(C(=O)NCc3ccccc3C)cs2)c2cccnc21 — higher, 1060 s
- O=C(Nc1ccccc1F)C1CC(=O)N(c2ccc3c(c2)CCN3C(=O)C2CC2)C1 (stereo not drawn) — lower, 749 s
- COc1ccc(N2CCN(C(=O)C3CCCN(c4nnc(-n5cccc5)s4)C3)CC2)cc1 (stereo not drawn) — lower, 829 s
- CCCS(=O)(=O)N1CCc2c(c(-c3nncn3Cc3ccccc3)nn2C)C1 — lower, 769 s
- CN(C)[C@@H](CCOc1cccc2ccccc12)c1ccccc1 — lower, 807 s
- CCC(C)NC(=O)c1cc(C)nc2ccc(Cl)cc12 (stereo not drawn) — lower, 770 s
- COc1cc(N2C=C(C(=O)N3CCCCC3)S(=O)(=O)c3ccccc32)cc(OC)c1OC — lower, 812 s
- Cc1ccc(NC(=O)N2CC(c3nc(CCOCC4CC4)no3)C2)cc1C — lower, 863 s
- CCC(=O)NCCc1csc(C2CCCN(C(=O)CC)C2)n1 (stereo not drawn) — lower, 591 s
- C=CCn1ccc2c(OCC(=O)Nc3cc(C)on3)cccc2c1=O — lower, 750 s
- Cc1ccc(NC(=O)N2CCC(n3cnc4cccnc43)CC2)c(Cl)c1 — lower, 676 s
- Cc1cc(C)cc(S(=O)(=O)N2CCC3(CC2)NCCN=C3NCc2cccc(F)c2)c1 — lower, 772 s
- Cc1nc(-c2cnccn2)nc2c1CCC(=O)N2Cc1ccco1 — lower, 683 s
- COc1ccccc1-c1noc(C2CCCN2C(=O)NC(C)C)n1 (stereo not drawn) — lower, 753 s
- COc1ccc(CNC2=NCCNC23CCN(S(=O)(=O)c2cc(C)c(C)cc2C)CC3)cc1 — lower, 794 s
- COc1ccc(S(=O)(=O)N2CC3CN(C(=O)C4CCOC4)CC(C2)O3)cc1 (stereo not drawn) — lower, 659 s
- Cc1ccc(-n2cc(C(=O)O)nn2)c(F)c1 — lower, 705 s
- O=C(NCCCN1CCCCCC1)c1csc(-c2ccnc(N3CCOCC3)c2)n1 — lower, 576 s
- CC(=O)N1CCc2cc(N3CC(C(=O)NCc4ccc(Cl)cc4)CC3=O)ccc21 (stereo not drawn) — lower, 720 s
- CCCn1c(=O)c2cc(C(=O)NCc3ccccc3C)nn2c2ccccc21 — higher, 1010 s
- CCCc1cc(N2CCN(C(=O)c3cccs3)CC2)nc2nncn12 — lower, 601 s
- COc1ccc(NC(=O)c2cc3c(=O)n(CC(C)C)c4ccccc4n3n2)cc1F — higher, 1070 s
- Cn1c(=O)c2cc(C(=O)NCCCc3ccccc3)sc2n(C)c1=O — lower, 765 s
- CC(C)c1cc(N2CCN(c3ccccn3)CC2)n2c(nc3ccccc32)c1C#N — lower, 695 s
- CCOCCCNC(=O)N1CCC2(CC1)Nc1cc(F)ccc1-n1cccc12 — lower, 858 s
- Cc1oc(C2CCN(C(=O)Nc3ccc4c(c3)CCC4)CC2)nc1C(=O)N1CCCC1 — lower, 861 s
- CCCn1nnnc1NCc1ccc2c(c1)n(C)c(=O)n2C — lower, 638 s
- CCOC(=O)c1nc(Nc2cccc(C)c2)c2ccccc2n1 — lower, 890 s
- CCn1cc(C(=O)Nc2ccc(C)c(C)c2)c2cccnc21 — higher, 937 s
- O=C(Cn1nc(C(=O)N2CCCC2)c2ccccc21)NCc1cccnc1 — lower, 580 s
- O=C1NCCOCCCN(C(=O)Nc2ccccc2)[C@H]2CCCC[C@@H]12 — lower, 672 s
- Cc1cc2nn(CC(=O)N(C)c3ccccc3)c(=O)n2c(Nc2ccccc2C)n1 — higher, 922 s
- COC(=O)C1=C(CN2CCN(C)CC2)NC(=O)NC1c1ccc(OC)c(OC)c1 (stereo not drawn) — lower, 567 s
- O=C(NCc1ccc(F)cc1)Nc1c(-c2ccccc2)nc2ccccn12 — lower, 639 s
- Cc1cccc(NC(=O)Cc2cn3cc(F)ccc3n2)c1C — lower, 600 s
- COC(=O)c1ccccc1NC(=O)CSc1cc(-n2nc(C)cc2C)ncn1 — higher, 1130 s
- CSc1ccc(-c2nc3c(C)cccn3c2Nc2ccccc2C)cc1 — lower, 810 s
- O=C(COc1ccc(Cl)cc1Cl)Nc1nc(-c2ccc(F)cc2)cs1 — higher, 1250 s
- COCc1cc(=O)n(CC(=O)Nc2ccccc2OC)c(N2CCOCC2)n1 — lower, 846 s
- O=C(NCc1cccnc1)c1nnc(-c2ccc(S(=O)(=O)N3CCCC3)cc2)o1 — lower, 616 s
- O=C(c1cc(-c2cccnc2)n[nH]1)N1CCN(C(=O)c2ccc(Br)o2)CC1 — lower, 605 s
- CCC(C)(C)NC(=O)c1c(C)oc2ccn(Cc3ccc(F)cc3)c(=O)c12 — higher, 1140 s
- N#Cc1nnn(-c2ccc(Cl)cc2)c1N — lower, 816 s
- COc1ccc(OCC(=O)N2CCCC2c2nc(-c3ccccc3)no2)cc1 (stereo not drawn) — higher, 930 s
- O=C1Nc2ccccc2SC1C(=O)N1CCC(C(=O)N2CCN(c3ccccc3F)CC2)CC1 (stereo not drawn) — lower, 784 s
- COc1ccc(Cl)cc1S(=O)(=O)Nc1cccn2c(C3CCC3)nnc12 — lower, 849 s
- CCOC(=O)c1c(CN2CCCC2)n(C)c2cc(-c3ccncc3)c3c(c12)CN(C)CO3 — lower, 730 s
- Cc1cc(N2CCOCC2)nc(N2CCN(C(=O)C3CCCCC3)CC2)n1 — lower, 625 s
- CCc1cc(=O)n(CC(=O)NCc2ccc(F)cc2)c(N2CCOCC2)n1 — lower, 717 s
- O=C1N(C2CCN(Cc3ccccn3)CC2)C(c2ccncc2)C12CCCCC2 (stereo not drawn) — lower, 556 s
- Cc1cccc2nnc(N3CCCC(C(=O)Nc4ccc5c(c4)OCCO5)C3)n12 (stereo not drawn) — lower, 669 s
- O=C(O)CNS(=O)(=O)c1ccc(Cl)c(-c2nnc(-c3ccccc3)o2)c1 — lower, 766 s
- O=C(NC(c1ccccc1)c1nnc(N2CCCC2)o1)c1ccccc1Cl (stereo not drawn) — lower, 867 s
- O=C(CC1CCCC1)Nc1ccc2c(c1)CCC(=O)N2 — lower, 684 s
- CCc1cccc(C)c1N(C(=O)CSCc1nc2ccccc2[nH]1)C(C)COC (stereo not drawn) — lower, 635 s
- CCOCCCNCc1ccc(-c2ccc(Cl)cc2)o1 — lower, 687 s
- CCN1C(=O)COc2ccc(-c3noc(/C=C/c4ccc(OC)c(OC)c4)n3)cc21 — higher, 1050 s
- CCCCN1CN(c2ccc(C)cc2)c2ncccc2S1(=O)=O — higher, 1110 s
- CN(C)CC1CN(C(=O)c2c[nH]c3ccccc23)CC12CCOCC2 (stereo not drawn) — lower, 725 s
- CS(=O)(=O)N1CCCC(C(=O)NC2CCCC2)CCNC(=O)CC1 (stereo not drawn) — lower, 603 s
- Cc1noc(C)c1Cc1ccc(C(=O)NCC23CCCC=C2NC(=O)CC3)o1 (stereo not drawn) — lower, 705 s
- CNC(=O)N1CCCC(c2cccc(C(=O)NCc3ccc(SC)cc3)c2)C1 (stereo not drawn) — lower, 779 s
- CCc1nc(-c2c(C)cc(C)nc2NC(=O)c2cc(C)cc(C)c2)no1 — lower, 605 s
- O=C(NCCc1ccccc1)NC1CCCN(c2cc(-c3ccncc3)[nH]n2)C1 (stereo not drawn) — lower, 620 s
